{
  "source": "patent US20080249168A1",
  "about": "“Pharmaceutical composition for gout” (priority 2007, published 2008)",
  "key": {"normal kunmin mice": {"tested_on": "normal kunmin mice", "assay": "Influence of L-carnitine on serum uric acid level in normal Kunmin mouse", "type": "in vivo", "conditions": "300 mg/kg", "protocol": "(§1) Fifty healthy kunmin Mouse (weight of 18-22 grams, male) were randomly divided into 5 groups, which are positive control group, negative control group, and small (250 mg/kg), medium (500 mg/kg) and large (1000 mg/kg) doses of 1-carnitine groups. The solvent for all solutions is 0.5% of sodium carboxymethyl cellulose (CMC—Na), with peritoneal injection in dose of 0.1 ml/10 g for all animals. For […], same dose of 0.5% of CMC—Na solution was injected. One hour after injection of inducer, blood samples were taken from eyeball, stet at room temperature for about one hour, centrifugation at 4000 r.p.m for 10 mins, supernatant was transferred to fresh tube for biochemical test of serum uric acid. Thirty healthy kunmin mouse (weight of 18-22 grams, male) were randomly divided into 3 groups, which are positive control group, negative control group, and 1-carnitine (300 mg/k) group. Others method was same as example 1."}, "[1]": {"tested_on": "hyperuricemia model of Kunmin mouse", "assay": "Influence of l-carnitine on serum uric acid in hyperuricemia model of Kunmin mouse (oteracil potassium as inducer)", "type": "in vivo", "conditions": "for serum uric acid value (X ± S): peritoneal injection, blood one hour after injection of inducer, P < 0.01 vs negative control", "protocol": "as §1, with “acid.” for “acid. Thirty healthy kunmin mouse (weight of 18-22 grams, male) were randomly divided into 3 groups, which are positive control group, negative control group, and 1-carnitine (300 mg/k) group. Others method was same as example 1.”\nThe efficacy of the composition described in the present invention is clearly shown in Example 1, where uricase inhibitor oteracil potassium is used as model inducer to induce hyperuricemia in Kunmin mouse, and administered Levocarnitine to observe novel pharmacological effect on the model."}},
  "note": "“Also recorded” adds a separate entry of the source.",
  "data": [
    {"smiles": "C[N+](C)(C)C[C@H](O)CC(=O)[O-]", "note": "[L-Carnitine, Levocarnitine (L-carnitine)]", "values": [
      {"measurement": "effect on uric acid level (in words)", "setting": "normal kunmin mice", "result": "no effect on uric acid level"},
      {"measurement": "serum uric acid value (X ± S)", "setting": "normal kunmin mice; P > 0.05 vs normal positive control group", "result": "76.9 ± 30.77"},
      {"measurement": "effect on uric acid level (in words)", "setting": "normal kunmin mice; listed as 1-carnitine", "result": "not affecting uric acid level"},
      {"measurement": "serum uric acid value (X ± S)", "setting": "[1]; 250 mg/kg (small dose)", "result": "140.6 ± 51.55"},
      {"measurement": "serum uric acid value (X ± S)", "setting": "[1]; 500 mg/kg (medium dose)", "result": "130.1 ± 34.8"},
      {"measurement": "serum uric acid value (X ± S)", "setting": "[1]; 1000 mg/kg (large dose)", "result": "131.7 ± 24.79"},
      {"measurement": "effect on serum uric acid level (in words)", "setting": "[1]; dose 250-1000 mg/kg", "result": "reduced serum uric acid level of model animal group significantly; also recorded: reduced the uric acid level significantly"}
    ]}
  ]
}
